According to US11241450B2, “Uridine diphosphate derivatives, prodrugs, compositions and uses thereof” (TUFTS UNIVERSITY, priority 2012, dated 2022):
Counter-ions that a name gives are not always drawn. Like-named read-outs stand apart in the source and are kept apart here. Blank lines part the entries; values can stand above or below the compound they belong to.

Columns and labels:
[1] = tested on: amyloid plaques in PSAPP mice; experiment: Postmortem immunohistochemistry of plaque load in cortex and hippocampus; assay type: in vivo, mouse; details: for decrease in plaque load, cortex / decrease in plaque load, hippocampus: acute i.c.v.
Description: (§1) Heterozygous mutant (K670N/M671L) APP (50% C57B6, 50% SJL) transgenic mice were crossed with heterozygous mutant (A246E) PS-1 (50% C57B6, 50% SJL) transgenic mice to generate heterozygous PSAPP transgenic mice (also referred to as PS-1/APP or PSAPP+/+ mice), which refers to animals heterozygous for the PS-1 A246E transgene and the APP K670N/M671L transgene. Non-transgenic control animals were littermates (also referred to as PSAPP_−/− mice) generated in the breeding for PSAPP transgenic animals. Mouse genotype was determined by Polymerase Chain Reaction (PCR). Both male and female mice of 6-7 months old were used for the experiments below. All animal experiments were performed in accordance with the Tufts Animal Care and Use Committee and with national regulations and policies.
Mice were perfused transcardially with 4% paraformaldehyde and 40 μm Coronal sections were collected. Sections were sequentially incubated in 0.3% H2O2 for 10 minutes, blocking solution for 2 hrs, blocking solution containing the primary antibody (rabbit anti-beta1-42; rabbit anti-beta1-40, from Chemicon International and rat anti-CD45) for 48 hours at 4° C., and blocking solution containing biotinylated antibody or fluorescently-labeled antibody for 2 hours at room temperature. Sections were visualized in a bright field microscope or a confocal microscope, and the optical density was obtained using MetaMorph software.
After repeated imaging, brains were fixed and subjected to postmortem immunohistochemistry with amyloid beta specific antibodies β1-40 and β1-42 to evaluate the plaque load (area occupied by immunostaining of plaque) in cortex and hippocampus.
PSB0474 was systemically administered to PSAPP mice via intraperitoneal injection for 2, 4 and 6 consecutive days. In one group, prior to evaluation and following to administration for 6 consecutive days, treatment was suspended for two weeks (6+2 weeks group). Brains were then fixed and plaque load was evaluated by immunostaining with the amyloid beta specific antibodies: β1-40 and β1-42. Representative images of plaque load in cortex and hippocampus from animals that received injections of PSB0474 according to the foregoing injection schedules are shown in FIG. 5(A)-(D). […] Whereas, when administration of PSB0474 was stopped for 2 weeks following six consecutive days of treatment (denoted as the 6+2 weeks group), β1-40 staining rebounded; although to a level lower than observed in mice treated with saline as a vehicle control. FIGS. 6A and 6B depict the reduction in plaque load (%) the cortex and hippocampus, respectively, in PSAPP mice after treatment with 3-phenacyl-UDP for 2, 4, or 6 consecutive days, as assayed by staining with the β1-40 antibody. FIGS. 6C-6F depict data obtained following administration of different dosages of PSB0474.
To generate these graphs showing plaque load, mice were euthanized, brain sections cut and antibodies directed against Aβ 42 were used to disclose Aβ plaques. Images were acquired digitally and an algorithm was applied to threshold the image so that plaques were isolated from the background. The algorithm then calculated the percent area of the field of view occupied by the plaques.

PSAPP mice [2] = experiment: Tolerability of increased dose in PSAPP mice; assay type: in vivo, mouse; details: 1000× increase in dose
PSAPP mice [3] = experiment: Contextual fear conditioning test; assay type: in vivo, mouse
Description: as §1
On day one, animals were trained in a fear conditioning apparatus for a total of 7 minutes with a two-pairing paradigm of cue and mild foot shock (a 30-s acoustic-conditioned stimulus, 80 dB; a 2-s shock stimulus, 0.5 mA). To evaluate contextual fear learning, the animals were returned to the training context 24 hours post-training, and freezing behavior was scored for 5 minutes. Freezing behavior was monitored by MotorMonitor (Hamilton Kinder) and scored every 5 seconds.
In this study, the fear conditioning associative learning paradigm was used as a rapid cognition assay for PSAPP mice. This study allowed us to probe cognitive function with a single training day followed in 24 hours by tests for contextual and cued fear learning. Contextual fear learning is dependent upon a brain area that has been implicated as a locus for cognitive decline in AD: the hippocampus. Two pairings of CS-US for fear conditioning were followed 24 hours later by testing for contextual and cued fear learning. Previous studies have reported that PSAPP animals appear to have a selective hippocampus-dependent impairment in associative learning following two pairings of conditioned stimuli for fear conditioning.
This represents a decrease in the cognitive impairment observed in the untreated mice.

P2Y6 receptor [4] = biological target: T1, P2Y6 receptor (Homo sapiens, UniProt Q15077); details: cited from earlier work
T1 sequence (Q15077 whole entry): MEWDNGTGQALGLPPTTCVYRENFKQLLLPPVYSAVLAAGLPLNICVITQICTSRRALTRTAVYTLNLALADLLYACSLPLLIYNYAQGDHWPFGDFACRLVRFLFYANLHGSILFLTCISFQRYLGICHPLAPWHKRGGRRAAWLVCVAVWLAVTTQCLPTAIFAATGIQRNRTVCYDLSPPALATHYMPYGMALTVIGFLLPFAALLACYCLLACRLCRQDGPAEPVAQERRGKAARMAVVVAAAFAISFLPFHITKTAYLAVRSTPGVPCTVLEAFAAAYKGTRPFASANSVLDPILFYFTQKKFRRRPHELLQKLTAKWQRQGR

plasma cytokines = experiment: Plasma cytokine levels after 7 daily i.p. injections; assay type: in vivo, mouse; details: 1 μg/kg i.p., 7 days
Procedure: Inflammatory cytokines were assessed in mouse plasma of both wild type and PS1/APP mice (Alzheimer's mouse model) and the impact of intraperitoneal delivery of compound 5 on circulating cytokines was assessed. Seven daily intraperitoneal injections of 1 μg/kg of compound 5 were delivered to mice. 24 hours following the final injection, plasma was collected. Wildtype, age matched littermates and PSAPP mice (>6 months of age) were treated either with vehicle (phosphate buffered saline) or vehicle containing compound.

[5] = tested on: amyloid plaques in PSAPP mice; experiment: Two-photon in vivo imaging of methoxyX04-labeled amyloid plaques in barrel cortex; parameters: species or system mouse; details: acute i.c.v. injection
Description: as §1
In this study, PSAPP mice were anesthetized using isoflurane and a thin-skull preparation was used to minimize the surface damage. Amyloid plaques were visualized with methoxyX04 labeling and blood plasma was labeled with Rhodamine dextran to facilitate re-localization of the same imaging area. Stack images were obtained using a two-photon system (Prairie Technologies) with excitation at 850 nm. The emission was detected by external photomultiplier tubes (525/70; DLCP 575; 607/45 nm).
Animals were anesthetized and immobilized in a stereotaxic frame. For each injection, 1 μl of 10 mM UDP or other suitable compounds in artificial cerebrospinalfluid (ACSF) as the vehicle were injected intraventricularly using the following coordinates: AP 0.2 mm, ML 1 mm, and DV 2.2 mm.
To evaluate the effect of UDP on plaque burden, two-photon microscopy was used to assess the amyloid plaques in the barrel cortex in living PSAPP mice. Amyloid plaques were stained by systemically administered methoxy-X04. One day prior to imaging, PSAPP mice were injected with methoxyX04 to label the amyloid plaques. On the imaging day, to facilitate the re-location of the same imaging area, blood plasma was labeled with Rhodamine dextran. Images were obtained from the same start- and end-point to ensure the same image volume. […]

PSAPP mice [6] = experiment: Hippocampal long-term potentiation (LTP) recording; assay type: in vivo, mouse; details: acute treatment, HFS
Procedure: Hippocampal slices (350 μm thick) were prepared from 6-month-old PSAPP mice. Baseline responses were obtained every 10 seconds and Input-output (I/O) curves, paired-pulse modification and LTP were successively measured. The stimulation intensity was set to a level that gives a value of 30% of the maximum obtained. LTP were induced by high frequency stimulation (HFS, 100 pulses at 100 Hz, four times) or by theta-burst stimulation (TBS, 10 bursts at 5 Hz, repeated 10 times in 15 s intervals).
Accumulated evidence has shown that amyloid peptides naturally secreted or isolated from Alzheimer's brains impair synaptic plasticity, especially hippocampal long-term potentiation (Walsh et al., 2002). Therefore, we further performed LTP recordings in PASPP mice and investigated whether P2Y6 receptor-mediated plaque clearance affects synaptic plasticity. […] First, it was observed that LTP at the schaffer collateral synapse within the CA1 region was depressed in PSAPP mice, as compared with littermates (FIG. 8(A)).

P2Y6 receptor [7] = biological target: T1, P2Y6 receptor; experiment: Activation of P2Y6 receptor: Ca2+ changes with fluo-4 in 1321N1 astrocytoma cells expressing P2Y6; assay type: cell-based; parameters: expressed in transfected cells; host or cells: 1321N1 human astrocytoma cells
Procedure: Synthetic ligands were tested for activation of P2Y6 receptor by measuring receptor induced Ca^2+ changes with the fluorescent Ca^2+ indicator fluo-4. 1321N1 human astrocytoma cell lines either expressing P2Y2, P2Y4 or P2Y6 receptors were plated into 24-well plates. Two days after plating, fluorometric measurements were made and responses of cells to a serial dilution of ligands were determined. P2Y6 receptor-mediated Ca^2+ fluorescent change was determined by normalized accumulation of fluorescent change of 3 timepoints after ligand administration subtracted by value from ACSF control. Changes in fluorescent intensity were plotted corresponding to ligand concentration in GraphPad. Dose-response curve and EC50 for each ligand was estimated using nonlinear curve fit and Sigmoidal dose-response analysis. […] The sodium salt of compound 5 was only effective at elevating Ca^2+ levels when applied to cells expressing P2Y6 receptors and not effective in P2Y2, or P2Y4 receptor expressing cells. The ability of the sodium salt of compound 5 to elevate Ca^2+ signals in P2Y6 expressing cells was attenuated by addition of the P2Y6 receptor antagonist MRS2578.
(§2) Synthetic ligands were tested for activation of P2Y6 receptor by measuring receptor induced Ca^2+ changes with the fluorescent Ca^2+ indicator fluo-4, and results are shown in FIG. 10(A)-(K). 1321N1 human astrocytoma cell lines either expressing P2Y2, P2Y4 or P2Y6 receptors were plated into 24-well plates. Two days after plating, fluorometric measurements were made and responses of cells to a serial dilution of ligands were determined. P2Y6 receptor-mediated Ca^2+ fluorescent change was determined by normalized accumulation of fluorescent change of 3 timepoints after ligand administration subtracted by value from ACSF control. Changes in fluorescent intensity were plotted corresponding to ligand concentration in GraphPad. Dose-response curve and EC50 for each ligand was estimated using nonlinear curve fit and Sigmoidal dose-response analysis. […]

P2Y2 receptor = biological target: T2, P2Y2 receptor (Homo sapiens, UniProt P41231); experiment: Ca2+ mobilization with fluo-4 in 1321N1 astrocytoma cells expressing P2Y2; assay type: cell-based; details: 1321N1 cells expressing P2Y2
T2 construct: expressed in transfected cells; host or cells: 1321N1 human astrocytoma cells
T2 sequence (P41231 whole entry): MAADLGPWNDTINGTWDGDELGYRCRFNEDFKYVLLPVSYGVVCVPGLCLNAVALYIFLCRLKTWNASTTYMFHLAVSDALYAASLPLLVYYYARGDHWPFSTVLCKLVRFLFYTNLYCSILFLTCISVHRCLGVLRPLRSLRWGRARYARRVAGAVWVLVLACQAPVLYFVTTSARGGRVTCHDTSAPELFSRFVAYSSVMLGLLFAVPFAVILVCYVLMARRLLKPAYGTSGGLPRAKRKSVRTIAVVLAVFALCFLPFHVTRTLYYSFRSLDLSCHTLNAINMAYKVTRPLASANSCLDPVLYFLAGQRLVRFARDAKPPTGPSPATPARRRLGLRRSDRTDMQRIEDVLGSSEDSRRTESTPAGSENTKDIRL
Procedure: as §2, with “fluo-4.” for “fluo-4, and results are shown in FIG. 10(A)-(K).”
(§3) Synthetic ligands were tested for activation of P2Y6 receptor by measuring receptor induced Ca^2+ changes with the fluorescent Ca^2+ indicator fluo-4, and results are shown in FIG. 10(A)-(K). […] Two days after plating, fluorometric measurements were made and responses of cells to a serial dilution of ligands were determined. P2Y6 receptor-mediated Ca^2+ fluorescent change was determined by normalized accumulation of fluorescent change of 3 timepoints after ligand administration subtracted by value from ACSF control. […]

P2Y4 receptor = biological target: T3, P2Y4 receptor (Homo sapiens, UniProt P51582); experiment: Ca2+ mobilization with fluo-4 in 1321N1 astrocytoma cells expressing P2Y4; assay type: cell-based; details: 1321N1 cells expressing P2Y4
T3 construct: expressed in transfected cells; host or cells: 1321N1 human astrocytoma cells
T3 sequence (P51582 whole entry): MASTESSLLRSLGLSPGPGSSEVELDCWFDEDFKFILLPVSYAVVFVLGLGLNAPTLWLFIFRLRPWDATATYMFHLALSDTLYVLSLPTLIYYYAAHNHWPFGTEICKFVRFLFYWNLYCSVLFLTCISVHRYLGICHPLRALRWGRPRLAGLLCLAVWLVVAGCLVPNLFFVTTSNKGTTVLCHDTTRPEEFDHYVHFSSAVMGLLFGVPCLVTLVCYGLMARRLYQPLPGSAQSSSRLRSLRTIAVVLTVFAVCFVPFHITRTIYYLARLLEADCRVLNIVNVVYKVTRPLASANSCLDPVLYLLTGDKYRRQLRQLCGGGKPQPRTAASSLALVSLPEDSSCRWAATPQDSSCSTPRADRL
Procedure: as §2, with “fluo-4.” for “fluo-4, and results are shown in FIG. 10(A)-(K).”
as §3

[8] = β1-42 antibody, vs vehicle control
[9] = i.p. daily for 7 consecutive days

Compound: O=C(Cn1c(=O)ccn(C2OC(COP(=O)(O)OP(=O)(O)O)C(O)C2O)c1=O)c1ccccc1 (centres unmarked) [3-phenacyl-UDP]
effects on the efficacy endpoint at the higher dose ([1]; 1 mg/kg): smaller effects | β1-40 staining after stopping administration ([1]; 6 consecutive days i.p., then stopped for 2 weeks): rebounded | immunoreactivity of β1-40 in cortex and hippocampus ([1]; i.p. for 4 and 6 consecutive days): significantly decreased | detrimental effects to the animal (PSAPP mice [2]): did not cause detrimental effects | total freezing percentage in context test (PSAPP mice [3]; chronic injection, two doses): increased | memory deficit in contextual fear conditioning test (PSAPP mice [3]; one week treatment with 1 μg/kg): rescued the memory deficit | selectivity for P2Y6 receptor (P2Y6 receptor [4]): > 500 fold | EC50 (P2Y6 receptor [4]; read-out: EC50, P2Y6 receptor agonist): 70 nM

Compound: O=c1ccn([C@@H]2O[C@H](COP(=O)(O)OP(=O)(O)O)[C@H](O)C2O)c(=O)n1Cc1noc2ccccc12 (some centres unmarked) [Compound 5]
Aβ plaque load (%) in the cortex [1, 8]: substantial decrease | Aβ plaque load (%) in the hippocampus [1, 8]: substantial decrease | freezing behavior relative to wildtype animals (PSAPP mice [3]; [9]): restored to a level equivalent to that observed in wildtype animals | total freezing percentage in the context test (PSAPP mice [3]; [9]): increased | plasma level of IL-2 (plasma cytokines; PSAPP mice): reduced | plasma level of IL-7 (plasma cytokines; PSAPP mice): reduced | plasma level of IL-9 (plasma cytokines; PSAPP mice): reduced | plasma level of IL-10 (plasma cytokines; PSAPP mice): reduced | plasma level of IL-15 (plasma cytokines; PSAPP mice): reduced | plasma level of Il-1β (plasma cytokines; PSAPP mice): reduced | plasma level of MIG (plasma cytokines; PSAPP mice): reduced | plasma level of MIP1α (plasma cytokines; PSAPP mice): reduced | plasma level of IL-2 (plasma cytokines; wildtype animals): reduced | plasma level of IL-10 (plasma cytokines; wildtype animals): reduced

Compound: O=c1ccn([C@@H]2O[C@H](COP(=O)(O)OP(=O)(O)O)[C@@H](O)[C@H]2O)c(=O)[nH]1 [UDP, uridine diphosphate]
decrease in plaque load, cortex ([1]; β1-40 antibody): 60% | decrease in plaque load, hippocampus ([1]; β1-40 antibody): 62% | decrease in plaque load, cortex ([1]; β1-42 antibody): 48% | decrease in plaque load, hippocampus ([1]; β1-42 antibody): 47% | reduction in plaque load ([5]; day 4 vs day 1, barrel cortex): 17.2% | reduction in the number of plaques ([5]; day 4 vs day 1, barrel cortex): 12.6% | reduction in cross-sectional area of individual identified plaques ([5]; second imaging session): 18.2% | freezing behavior during the first 4 minutes (PSAPP mice [3]; acute i.c.v., 5 minute testing time): increased | total freezing percentage (PSAPP mice [3]; acute i.c.v., contextual test): 49%±5% | LTP deficit at CA1 (PSAPP mice [6]): reversed this LTP deficit | field excitatory postsynaptic potential (fEPSP), last 15 min potentiation (PSAPP mice [6]): significant increase

elevating Ca2+ levels in cells expressing P2Y6 receptors (P2Y6 receptor [7]; 1321N1 cells expressing P2Y6): effective | EC50 (P2Y6 receptor [7]; 1321N1 cells expressing P2Y6, fluo-4 Ca2+): 12 nM | ability to elevate Ca2+ signals on addition of P2Y6 receptor antagonist MRS2578 (P2Y6 receptor [7]; P2Y6 expressing cells, plus MRS2578): attenuated | elevating Ca2+ levels in P2Y2 receptor expressing cells (P2Y2 receptor): not effective | elevating Ca2+ levels in P2Y4 receptor expressing cells (P2Y4 receptor): not effective
Compound: O=c1ccn(C2OC(COP(=O)(O)OP(=O)(O)O)[C@H](O)C2O)c(=O)n1Cc1noc2ccccc12 (some centres unmarked) [sodium salt of compound 5]
